Assays:
[1] = biological target: Mast/stem cell growth factor receptor Kit (Homo sapiens) (UniProt P10721); experiment: Binding affinity to wild-type human partial length KIT (I571 to D952 residues) expressed in bacterial expression system assessed as residual binding level at 10 uM by Kinomescan method relative to control
[2] = biological target: Mitogen-activated protein kinase 10 (Homo sapiens) (UniProt P53779); experiment: Binding affinity to wild-type human partial length JNK3 (V28 to Q422 residues) expressed in mammalian expression system assessed as residual binding level at 10 uM by Kinomescan method relative to control
[3] = biological target: Receptor tyrosine-protein kinase erbB-3 (Homo sapiens) (UniProt P21860); experiment: Binding affinity to wild-type human partial length ERBB3 (G684 to A987 residues) expressed in mammalian expression system assessed as residual binding level at 10 uM by Kinomescan method relative to control
[4] = biological target: Casein kinase I isoform gamma-2 (Homo sapiens) (UniProt P78368); experiment: Binding affinity to wild-type human full length CSNK1G2 (M1 to K415 residues) expressed in bacterial expression system assessed as residual binding level at 10 uM by Kinomescan method relative to control
[5] = biological target: Phosphatidylinositol 4-phosphate 5-kinase type-1 gamma (Homo sapiens) (UniProt O60331); experiment: Binding affinity to wild-type human partial length PIP5K1C (M1 to T668 residues) expressed in mammalian expression system assessed as residual binding level at 10 uM by Kinomescan method relative to control
[6] = biological target: Serine/threonine-protein kinase ULK2 (Homo sapiens) (UniProt Q8IYT8); experiment: Binding affinity to wild-type human partial length ULK2 (M1 to S301 residues) expressed in mammalian expression system assessed as residual binding level at 10 uM by Kinomescan method relative to control
[7] = biological target: Cyclin-dependent kinase 18 (Homo sapiens) (UniProt Q07002); experiment: Binding affinity to wild-type human full length PCTK3 (M3 to F474 residues) expressed in bacterial expression system assessed as residual binding level at 10 uM by Kinomescan method relative to control
[8] = biological target: Tyrosine-protein kinase JAK2 (Homo sapiens) (UniProt O60674); experiment: Binding affinity to wild-type human partial length JAK2 JH1 catalytic domain (A829 to G1132 residues) expressed in mammalian expression system assessed as residual binding level at 10 uM by Kinomescan method relative to control
[9] = biological target: Serine/threonine-protein kinase TNNI3K (Homo sapiens) (UniProt Q59H18); experiment: Binding affinity to wild-type human full length TNNI3K (M1 to S835 residues) expressed in bacterial expression system assessed as residual binding level at 10 uM by Kinomescan method relative to control
[10] = biological target: Serine/threonine-protein kinase 24 (Homo sapiens) (UniProt Q9Y6E0); experiment: Binding affinity to wild-type human partial length MST3 (A30 to S311 residues) expressed in bacterial expression system assessed as residual binding level at 10 uM by Kinomescan method relative to control
[11] = biological target: Serine/threonine-protein kinase SIK1 (Homo sapiens) (UniProt P57059); experiment: Binding affinity to wild-type human partial length SIK (M1 to Y304 residues) expressed in bacterial expression system assessed as residual binding level at 10 uM by Kinomescan method relative to control
[12] = biological target: Rho-associated protein kinase 1 (Homo sapiens) (UniProt Q13464); experiment: Binding affinity to wild-type human partial length ROCK1 (M1 to R415 residues) expressed in mammalian expression system assessed as residual binding level at 10 uM by Kinomescan method relative to control
[13] = biological target: Casein kinase I isoform alpha (Homo sapiens) (UniProt P48729); experiment: Binding affinity to wild-type human partial length CSNK1A1 (M1 to L450 residues) expressed in mammalian expression system assessed as residual binding level at 10 uM by Kinomescan method relative to control
[14] = biological target: Maternal embryonic leucine zipper kinase (Homo sapiens) (UniProt Q14680); experiment: Binding affinity to wild-type human full length MELK (M1 to V651 residues) expressed in bacterial expression system assessed as residual binding level at 10 uM by Kinomescan method relative to control
[15] = system: Epidermal growth factor receptor (Homo sapiens), P00533 [G719C]; experiment: Binding affinity to human partial length EGFR G719C mutant (R669 to V1011 residues) expressed in bacterial expression system assessed as residual binding level at 10 uM by Kinomescan method relative to control
[16] = biological target: Death-associated protein kinase 3 (Homo sapiens) (UniProt O43293); experiment: Binding affinity to wild-type human partial length DAPK3 (M1 to A277 residues) expressed in bacterial expression system assessed as residual binding level at 10 uM by Kinomescan method relative to control
[17] = biological target: Mitogen-activated protein kinase 13 (Homo sapiens) (UniProt O15264); experiment: Binding affinity to wild-type human full length p38-delta (M1 to L365 residues) expressed in bacterial expression system assessed as residual binding level at 10 uM by Kinomescan method relative to control
[18] = biological target: Serine/threonine-protein kinase STK11 (Homo sapiens) (UniProt Q15831); experiment: Binding affinity to wild-type human full length LKB1 (M1 to Q433 residues) expressed in bacterial expression system assessed as residual binding level at 10 uM by Kinomescan method relative to control
[19] = system: Phosphatidylinositol 4,5-bisphosphate 3-kinase catalytic subunit alpha isoform (Homo sapiens), P42336 [M1043I]; experiment: Binding affinity to human partial length PIK3CA M1043I mutant (R108 to N1068 residues) expressed in mammalian expression system assessed as residual binding level at 10 uM by Kinomescan method relative to control
[20] = biological target: Myosin light chain kinase (Homo sapiens) (UniProt Q32MK0); experiment: Binding affinity to wild-type human partial length MLCK (D488 to K800 residues) expressed in bacterial expression system assessed as residual binding level at 10 uM by Kinomescan method relative to control
[21] = biological target: Ephrin type-B receptor 6 (Homo sapiens) (UniProt O15197); experiment: Binding affinity to wild-type human partial length EPHB6 (Q634 to P948 residues) expressed in mammalian expression system assessed as residual binding level at 10 uM by Kinomescan method relative to control
[22] = biological target: Eukaryotic translation initiation factor 2-alpha kinase 1 (Homo sapiens) (UniProt Q9BQI3); experiment: Binding affinity to wild-type human partial length EIF2AK1 (Q147 to E603 residues) expressed in mammalian expression system assessed as residual binding level at 10 uM by Kinomescan method relative to control
[23] = biological target: Serine/threonine-protein kinase ULK1 (Homo sapiens) (UniProt O75385); experiment: Binding affinity to wild-type human partial length ULK1 (M1 to T309 residues) expressed in mammalian expression system assessed as residual binding level at 10 uM by Kinomescan method relative to control
[24] = biological target: Mitogen-activated protein kinase kinase kinase 3 (Homo sapiens) (UniProt Q99759); experiment: Binding affinity to wild-type human partial length MAP3K3 (E320 to Y626 residues) expressed in mammalian expression system assessed as residual binding level at 10 uM by Kinomescan method relative to control
Sequence of Mitogen-activated protein kinase kinase kinase 3 (Homo sapiens) (Q99759 whole entry, the tested form may be a part): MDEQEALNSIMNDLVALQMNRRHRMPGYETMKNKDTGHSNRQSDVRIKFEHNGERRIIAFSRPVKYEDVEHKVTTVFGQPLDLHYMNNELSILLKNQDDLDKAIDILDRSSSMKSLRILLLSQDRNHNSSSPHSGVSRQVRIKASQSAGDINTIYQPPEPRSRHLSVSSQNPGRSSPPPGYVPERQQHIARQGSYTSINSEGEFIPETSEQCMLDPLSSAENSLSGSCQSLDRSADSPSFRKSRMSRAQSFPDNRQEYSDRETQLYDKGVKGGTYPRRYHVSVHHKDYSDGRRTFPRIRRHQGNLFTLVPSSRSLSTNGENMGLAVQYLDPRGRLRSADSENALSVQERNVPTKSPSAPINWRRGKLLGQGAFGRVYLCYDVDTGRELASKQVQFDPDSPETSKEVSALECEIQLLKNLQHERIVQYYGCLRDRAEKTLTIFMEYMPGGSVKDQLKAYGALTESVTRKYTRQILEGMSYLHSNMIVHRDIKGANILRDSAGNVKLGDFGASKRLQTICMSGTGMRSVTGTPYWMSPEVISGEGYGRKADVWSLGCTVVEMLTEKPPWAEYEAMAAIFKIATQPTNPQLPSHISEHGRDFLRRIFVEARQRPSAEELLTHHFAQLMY

Sequence of Phosphatidylinositol 4,5-bisphosphate 3-kinase catalytic subunit alpha isoform (Homo sapiens), P42336 [M1043I] (P42336 whole entry M1043I, the tested form may be a part, canonical isoform): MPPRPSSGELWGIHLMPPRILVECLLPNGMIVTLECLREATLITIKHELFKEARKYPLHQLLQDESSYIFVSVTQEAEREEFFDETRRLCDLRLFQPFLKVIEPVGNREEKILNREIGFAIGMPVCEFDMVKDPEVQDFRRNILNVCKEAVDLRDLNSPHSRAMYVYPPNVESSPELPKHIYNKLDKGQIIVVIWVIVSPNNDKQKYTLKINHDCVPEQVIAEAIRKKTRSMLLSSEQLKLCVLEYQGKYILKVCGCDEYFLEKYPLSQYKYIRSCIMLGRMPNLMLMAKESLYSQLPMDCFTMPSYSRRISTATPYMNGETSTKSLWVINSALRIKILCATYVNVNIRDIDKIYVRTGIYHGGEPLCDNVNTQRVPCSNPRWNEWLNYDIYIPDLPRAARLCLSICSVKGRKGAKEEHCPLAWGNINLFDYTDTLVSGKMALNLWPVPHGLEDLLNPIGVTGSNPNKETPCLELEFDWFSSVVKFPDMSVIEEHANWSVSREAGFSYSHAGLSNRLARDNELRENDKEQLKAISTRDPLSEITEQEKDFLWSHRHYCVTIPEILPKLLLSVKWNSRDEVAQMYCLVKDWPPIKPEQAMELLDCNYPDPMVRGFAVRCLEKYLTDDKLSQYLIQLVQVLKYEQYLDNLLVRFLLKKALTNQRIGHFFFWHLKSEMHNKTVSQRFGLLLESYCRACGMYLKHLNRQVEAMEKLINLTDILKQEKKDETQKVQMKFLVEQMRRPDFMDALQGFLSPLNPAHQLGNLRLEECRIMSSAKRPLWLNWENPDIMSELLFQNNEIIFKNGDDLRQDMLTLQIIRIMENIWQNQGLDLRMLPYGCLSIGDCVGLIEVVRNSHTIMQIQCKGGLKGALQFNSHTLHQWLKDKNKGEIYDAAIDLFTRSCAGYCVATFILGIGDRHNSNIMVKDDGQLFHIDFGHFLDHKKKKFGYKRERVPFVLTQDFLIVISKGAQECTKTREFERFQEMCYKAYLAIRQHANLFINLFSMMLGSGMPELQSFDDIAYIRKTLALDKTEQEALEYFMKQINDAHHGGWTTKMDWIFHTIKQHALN
Sequence of Serine/threonine-protein kinase TNNI3K (Homo sapiens) (Q59H18 whole entry, the tested form may be a part): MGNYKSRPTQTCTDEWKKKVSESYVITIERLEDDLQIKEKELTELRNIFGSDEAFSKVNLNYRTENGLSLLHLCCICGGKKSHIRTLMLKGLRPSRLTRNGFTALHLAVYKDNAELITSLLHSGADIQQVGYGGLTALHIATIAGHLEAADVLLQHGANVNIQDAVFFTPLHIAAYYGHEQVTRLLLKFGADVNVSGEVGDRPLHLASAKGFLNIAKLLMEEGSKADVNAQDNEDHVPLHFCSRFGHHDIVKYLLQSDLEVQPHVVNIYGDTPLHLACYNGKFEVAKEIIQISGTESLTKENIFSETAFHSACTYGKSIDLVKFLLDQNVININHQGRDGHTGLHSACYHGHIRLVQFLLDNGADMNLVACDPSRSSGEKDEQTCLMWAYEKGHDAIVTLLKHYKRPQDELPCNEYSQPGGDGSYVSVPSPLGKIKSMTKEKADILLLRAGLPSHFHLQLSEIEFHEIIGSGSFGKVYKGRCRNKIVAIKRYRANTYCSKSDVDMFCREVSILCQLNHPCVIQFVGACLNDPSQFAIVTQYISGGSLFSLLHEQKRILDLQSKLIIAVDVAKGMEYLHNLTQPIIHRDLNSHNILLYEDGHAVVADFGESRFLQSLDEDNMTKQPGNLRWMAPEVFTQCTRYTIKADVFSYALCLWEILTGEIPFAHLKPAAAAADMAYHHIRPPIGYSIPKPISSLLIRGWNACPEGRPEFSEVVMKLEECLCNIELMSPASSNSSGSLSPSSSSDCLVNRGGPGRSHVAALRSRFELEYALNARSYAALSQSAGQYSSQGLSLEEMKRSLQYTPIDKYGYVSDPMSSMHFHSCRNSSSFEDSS
Sequence of Mitogen-activated protein kinase 13 (Homo sapiens) (O15264 whole entry, the tested form may be a part): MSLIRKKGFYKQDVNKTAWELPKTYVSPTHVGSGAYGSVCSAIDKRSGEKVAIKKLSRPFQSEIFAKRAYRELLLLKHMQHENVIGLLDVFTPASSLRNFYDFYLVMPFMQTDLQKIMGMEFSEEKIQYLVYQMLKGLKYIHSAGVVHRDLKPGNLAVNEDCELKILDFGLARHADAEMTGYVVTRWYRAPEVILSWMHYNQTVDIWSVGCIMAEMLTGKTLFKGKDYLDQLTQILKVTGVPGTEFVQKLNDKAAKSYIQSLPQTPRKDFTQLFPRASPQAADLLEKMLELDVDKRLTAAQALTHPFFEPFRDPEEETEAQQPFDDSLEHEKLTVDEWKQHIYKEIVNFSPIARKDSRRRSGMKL
Sequence of Serine/threonine-protein kinase ULK2 (Homo sapiens) (Q8IYT8 whole entry, the tested form may be a part): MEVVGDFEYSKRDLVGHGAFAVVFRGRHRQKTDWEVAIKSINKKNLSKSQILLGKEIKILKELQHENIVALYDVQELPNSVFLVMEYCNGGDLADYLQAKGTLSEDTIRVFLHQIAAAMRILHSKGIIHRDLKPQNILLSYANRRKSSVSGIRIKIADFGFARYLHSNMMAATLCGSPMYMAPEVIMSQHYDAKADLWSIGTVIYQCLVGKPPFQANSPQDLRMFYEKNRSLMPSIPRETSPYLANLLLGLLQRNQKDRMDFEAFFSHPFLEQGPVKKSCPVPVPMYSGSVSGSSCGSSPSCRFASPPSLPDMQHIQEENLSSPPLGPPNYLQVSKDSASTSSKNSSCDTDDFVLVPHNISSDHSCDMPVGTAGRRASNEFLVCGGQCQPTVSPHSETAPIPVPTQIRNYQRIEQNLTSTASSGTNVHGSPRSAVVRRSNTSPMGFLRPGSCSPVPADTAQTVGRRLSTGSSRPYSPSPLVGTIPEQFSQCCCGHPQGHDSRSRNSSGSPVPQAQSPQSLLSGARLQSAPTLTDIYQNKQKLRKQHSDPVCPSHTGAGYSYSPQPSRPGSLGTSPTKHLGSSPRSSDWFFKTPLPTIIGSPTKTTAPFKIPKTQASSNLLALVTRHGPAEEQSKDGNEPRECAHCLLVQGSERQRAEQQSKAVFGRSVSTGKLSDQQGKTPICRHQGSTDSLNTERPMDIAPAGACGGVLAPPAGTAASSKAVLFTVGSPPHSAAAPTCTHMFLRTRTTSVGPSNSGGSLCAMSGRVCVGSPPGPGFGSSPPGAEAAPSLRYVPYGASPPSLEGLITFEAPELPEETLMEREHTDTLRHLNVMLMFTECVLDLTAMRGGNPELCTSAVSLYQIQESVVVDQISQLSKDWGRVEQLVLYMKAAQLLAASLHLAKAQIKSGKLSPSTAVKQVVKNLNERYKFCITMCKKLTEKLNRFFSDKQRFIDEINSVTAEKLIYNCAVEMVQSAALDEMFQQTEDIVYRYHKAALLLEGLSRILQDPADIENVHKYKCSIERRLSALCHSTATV
Sequence of Casein kinase I isoform gamma-2 (Homo sapiens) (P78368 whole entry, looked up, the tested form may be a part, canonical isoform): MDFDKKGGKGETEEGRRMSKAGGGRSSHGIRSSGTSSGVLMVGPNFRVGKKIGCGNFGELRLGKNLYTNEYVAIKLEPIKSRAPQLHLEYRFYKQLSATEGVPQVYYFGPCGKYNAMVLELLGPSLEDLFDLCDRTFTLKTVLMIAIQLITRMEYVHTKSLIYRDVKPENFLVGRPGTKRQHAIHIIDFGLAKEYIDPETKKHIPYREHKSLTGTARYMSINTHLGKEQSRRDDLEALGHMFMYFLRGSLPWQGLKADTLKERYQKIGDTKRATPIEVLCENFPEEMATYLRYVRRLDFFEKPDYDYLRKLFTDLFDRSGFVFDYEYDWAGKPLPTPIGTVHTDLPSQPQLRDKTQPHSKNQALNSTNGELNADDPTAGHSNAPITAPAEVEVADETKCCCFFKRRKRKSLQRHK
Sequence of Eukaryotic translation initiation factor 2-alpha kinase 1 (Homo sapiens) (Q9BQI3 whole entry, the tested form may be a part): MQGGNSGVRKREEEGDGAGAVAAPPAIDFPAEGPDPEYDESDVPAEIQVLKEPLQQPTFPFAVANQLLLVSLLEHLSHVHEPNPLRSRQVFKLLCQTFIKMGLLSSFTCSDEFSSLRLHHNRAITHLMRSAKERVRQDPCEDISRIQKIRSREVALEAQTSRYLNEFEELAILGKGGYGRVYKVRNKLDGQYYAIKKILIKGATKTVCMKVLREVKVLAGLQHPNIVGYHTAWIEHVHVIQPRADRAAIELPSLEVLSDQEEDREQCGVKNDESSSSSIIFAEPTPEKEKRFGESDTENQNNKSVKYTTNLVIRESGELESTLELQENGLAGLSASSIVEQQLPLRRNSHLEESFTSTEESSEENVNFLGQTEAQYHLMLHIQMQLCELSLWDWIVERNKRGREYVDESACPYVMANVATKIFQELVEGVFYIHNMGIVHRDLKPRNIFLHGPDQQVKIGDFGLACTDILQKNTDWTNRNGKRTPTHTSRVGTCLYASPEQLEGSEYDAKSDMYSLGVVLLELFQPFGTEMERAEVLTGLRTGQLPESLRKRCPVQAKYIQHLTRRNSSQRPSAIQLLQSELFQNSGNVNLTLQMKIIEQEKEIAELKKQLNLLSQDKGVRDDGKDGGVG

## CC(C)N1C(=O)C(NCCCN(C)C)=C(c2cn(C)c3ccccc23)C1=O.Cl
[1]
  Activity: 99%
[2]
  Activity: 85%
[3]
  Activity: 93%
[4]
  Activity: 91%
[5]
  Activity: 96%
[6]
  Activity: 80%
[7]
  Activity: 99%
[8]
  Activity: 86%
[9]
  Activity: 100%
[10]
  Activity: 100%
[11]
  Activity: 95%
[12]
  Activity: 96%
[13]
  Activity: 88%
[14]
  Activity: 100%
[15]
  Activity: 100%
[16]
  Activity: 98%
[17]
  Activity: 100%
[18]
  Activity: 91%
[19]
  Activity: 67%
[20]
  Activity: 89%
[21]
  Activity: 74%
[22]
  Activity: 82%
[23]
  Activity: 79%
[24]
  Activity: 100%

Source: ChEMBL document CHEMBL4304811, “Development of a Water-Soluble Indolylmaleimide Derivative IM-93 Showing Dual Inhibition of Ferroptosis and NETosis” (ACS Med Chem Lett, 2019)
